# From ChEMBL document CHEMBL1932930, “Synthesis and biological assessment of novel 2-thiazolylhydrazones and computational analysis of their recognition by monoamine oxidase B” (Eur J Med Chem, 2012)
# What was measured:
# [1] = target: T1, Amine oxidase [flavin-containing] A (Homo sapiens, UniProt P21397); assay: Inhibition of human recombinant MAO-A expressed in baculovirus infected BTI-TN-5B1-4 insect cells assessed as inhibition of hydrogen peroxide production from […] after 15 mins by fluorimetric method; conditions: bti-tn-5b1-4, 0.25 h
# T1 sequence (P21397 whole entry): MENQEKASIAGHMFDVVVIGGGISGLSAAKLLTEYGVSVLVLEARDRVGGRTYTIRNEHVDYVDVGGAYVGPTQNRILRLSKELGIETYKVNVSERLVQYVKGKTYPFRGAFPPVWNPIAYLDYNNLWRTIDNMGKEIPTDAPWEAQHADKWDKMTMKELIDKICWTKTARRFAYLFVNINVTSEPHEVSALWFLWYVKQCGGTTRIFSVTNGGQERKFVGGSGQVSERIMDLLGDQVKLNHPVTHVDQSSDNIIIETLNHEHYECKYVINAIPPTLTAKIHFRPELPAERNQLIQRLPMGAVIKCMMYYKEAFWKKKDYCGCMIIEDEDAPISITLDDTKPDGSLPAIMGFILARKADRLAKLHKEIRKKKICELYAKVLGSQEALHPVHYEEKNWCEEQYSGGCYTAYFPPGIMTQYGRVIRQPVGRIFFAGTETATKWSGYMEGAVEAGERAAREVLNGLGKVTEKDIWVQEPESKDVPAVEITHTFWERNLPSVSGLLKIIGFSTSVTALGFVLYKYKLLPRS
# [2] = target: T1, Amine oxidase [flavin-containing] A; assay: Inhibition of human recombinant MAO-A expressed in baculovirus infected BTI-TN-5B1-4 insect cells assessed as inhibition of hydrogen peroxide production from […] at 100 uM after 15 mins by fluorimetric method; conditions: for inhibition (INH): human, bti-tn-5b1-4, 0.25 h, 100 µM; for inhibition at 100 µM: BTI-TN-5B1-4, human, 0.25 h
# [3] = target: T2, Amine oxidase [flavin-containing] B (Homo sapiens, UniProt P27338); assay: Inhibition of human recombinant MAO-B expressed in baculovirus infected BTI-TN-5B1-4 insect cells assessed as inhibition of hydrogen peroxide production from […] at 100 uM after 15 mins by fluorimetric method; conditions: BTI-TN-5B1-4, human, 0.25 h
# T2 sequence (P27338 whole entry): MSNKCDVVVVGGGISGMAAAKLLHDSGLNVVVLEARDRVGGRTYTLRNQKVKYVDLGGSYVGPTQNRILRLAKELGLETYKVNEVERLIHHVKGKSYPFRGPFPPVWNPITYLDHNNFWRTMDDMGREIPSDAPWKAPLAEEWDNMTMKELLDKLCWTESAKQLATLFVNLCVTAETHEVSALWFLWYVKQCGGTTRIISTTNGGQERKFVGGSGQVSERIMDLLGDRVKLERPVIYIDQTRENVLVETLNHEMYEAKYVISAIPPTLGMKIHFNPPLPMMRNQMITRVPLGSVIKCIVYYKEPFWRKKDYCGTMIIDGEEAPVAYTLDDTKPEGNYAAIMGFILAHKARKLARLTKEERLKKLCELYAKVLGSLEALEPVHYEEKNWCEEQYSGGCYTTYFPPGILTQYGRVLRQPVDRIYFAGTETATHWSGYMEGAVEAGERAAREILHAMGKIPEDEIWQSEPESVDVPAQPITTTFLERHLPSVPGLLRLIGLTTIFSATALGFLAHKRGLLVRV
# [4] = target: T2, Amine oxidase [flavin-containing] B; assay: biochemical
# Description: Inhibition of human recombinant MAO-B expressed in baculovirus infected BTI-TN-5B1-4 insect cells assessed as inhibition of hydrogen peroxide production from p-tryptamine after 15 mins by fluorimetric method
# [5] = target: T2, Amine oxidase [flavin-containing] B; assay: Inhibition of human recombinant MAO-B expressed in baculovirus infected BTI-TN-5B1-4 insect cells assessed as inhibition of hydrogen peroxide production from […] at 1 mM after 15 mins by fluorimetric method; conditions: bti-tn-5b1-4, 0.25 h, 1000 µM
SMILES,inhibition (INH) [1],inhibition (INH) [2],inhibition at 100 µM [3] [%],IC50 [4] [µM],inhibition (INH) [5],inhibition at 100 µM [2] [%]
Cc1ccc(/C=N/Nc2nc(-c3ccc(Cl)cc3)cs2)cc1,Dose-dependent effect,Not Active,40,–,–,–
Cc1ccc(/C=N/Nc2nc(-c3ccc(F)cc3)cs2)cc1,Dose-dependent effect,Not Active,–,44.7,–,–
O=C(NCCN1CCOCC1)c1ccc(Cl)cc1 [MOCLOBEMIDE],Dose-dependent effect,–,–,–,Not Active,–
Cc1ccccc1/C=N/Nc1nc(-c2ccc(F)cc2)cs1,Dose-dependent effect,–,–,0.19,–,40
COc1ccc(/C=N/Nc2nc(-c3ccc(Cl)cc3)cs2)cc1,Dose-dependent effect,–,40,–,–,40
Clc1ccc(/C=N/Nc2nc(-c3ccc(Cl)cc3)cs2)cc1,Dose-dependent effect,–,40,–,–,40
Fc1ccc(-c2csc(N/N=C/c3ccc(Cl)cc3)n2)cc1,Dose-dependent effect,–,–,1.32,–,40
Cc1ccccc1/C=N/Nc1nc(-c2ccc(Cl)cc2)cs1,Dose-dependent effect,–,40,–,–,40
COc1ccc(/C=N/Nc2nc(-c3ccc(F)cc3)cs2)cc1,Dose-dependent effect,–,–,9.24,–,40
Clc1ccc(-c2csc(N/N=C/c3ccccc3)n2)cc1,Dose-dependent effect,–,40,–,–,40
Fc1ccc(-c2csc(N/N=C/c3ccccc3)n2)cc1,Dose-dependent effect,–,–,0.79,–,40
COc1ccc(/C=N/Nc2nc(-c3ccc(Cl)cc3)cs2)cc1OC,Dose-dependent effect,–,40,–,–,40
C#CCN(C)CCCOc1ccc(Cl)cc1Cl [CLORGILINE],Dose-dependent effect,–,–,–,–,–
COc1ccc(/C=N/Nc2nc(-c3ccc(F)cc3)cs2)cc1OC,Dose-dependent effect,–,–,2.39,–,40
